# Earlier results as cited in patent publication US20160213673A1, “ENDURANCE FORMULATION AND USE” (priority 2015, published 2016).
# Columns and labels:
# [1] = exhausted rats
# [2] = following 4 mg/kg caffeine consumption
# [3] = during the first 15 minutes of exercise
# TRVP-1 = TRVP-1 (Homo sapiens, UniProt Q8NER1)
# [4] = 3 mg of 9 mg of dihydrocapsiate per day for 28 days
# [5] = test system: UCP3 mRNA expression in skeletal muscle; conditions: occurred within minutes of capsinoid ingestion
# [6] = not given; remark: listed apart in the source
# [7] = following capsiate administration
# Sequence of TRVP-1 (Q8NER1 whole entry): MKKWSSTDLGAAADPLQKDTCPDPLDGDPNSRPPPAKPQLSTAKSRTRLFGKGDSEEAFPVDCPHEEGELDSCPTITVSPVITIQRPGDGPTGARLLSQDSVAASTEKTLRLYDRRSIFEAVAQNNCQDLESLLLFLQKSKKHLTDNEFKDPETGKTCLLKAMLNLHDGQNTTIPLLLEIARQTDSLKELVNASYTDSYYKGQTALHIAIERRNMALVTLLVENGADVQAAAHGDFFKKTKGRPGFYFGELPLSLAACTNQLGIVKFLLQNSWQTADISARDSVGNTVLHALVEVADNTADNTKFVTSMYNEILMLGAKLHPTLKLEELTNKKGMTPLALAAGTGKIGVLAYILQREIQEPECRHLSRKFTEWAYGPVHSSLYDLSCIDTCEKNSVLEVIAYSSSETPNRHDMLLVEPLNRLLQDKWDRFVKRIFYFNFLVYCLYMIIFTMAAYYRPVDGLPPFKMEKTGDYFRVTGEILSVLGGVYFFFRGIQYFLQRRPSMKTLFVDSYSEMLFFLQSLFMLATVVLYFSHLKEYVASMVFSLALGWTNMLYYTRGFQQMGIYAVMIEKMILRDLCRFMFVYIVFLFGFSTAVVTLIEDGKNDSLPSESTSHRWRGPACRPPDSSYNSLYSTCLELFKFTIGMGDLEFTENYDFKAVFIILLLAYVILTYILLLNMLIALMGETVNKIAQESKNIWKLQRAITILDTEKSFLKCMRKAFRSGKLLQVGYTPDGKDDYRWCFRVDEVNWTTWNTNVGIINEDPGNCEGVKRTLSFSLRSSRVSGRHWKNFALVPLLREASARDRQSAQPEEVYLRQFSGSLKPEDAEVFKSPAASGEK
compound,measurement,setting,value
NC(=O)NCCC[C@H](N)C(=O)O [citrulline],ammonia toxicity,[1],mitigate ammonia toxicity
Cn1c(=O)c2c(ncn2C)n(C)c1=O [caffeine],plasma free fatty acids,[2],greater increase
same,respiratory quotient (RQ),[2],significantly lower
same,arginase activity,arginase,inhibits arginase activity
same,decrease of glycogen utilization,[3],≤ 50%
N=C(N)NCCC[C@H](N)C(=O)O [arginine],ammonia toxicity,[1],mitigate ammonia toxicity
COc1cc(COC(=O)CCCCCCC(C)C)ccc1O [dihydrocapsiate],"rates of TRVP-1 activation, capsiate compared with dihydrocapsiate",TRVP-1,similar
same,post prandial energy expenditure,[4],significant increase
same,respiratory quotient (RQ) versus placebo group,[4],significantly lower
COc1cc(COC(=O)CCCC/C=C/C(C)C)ccc1O [capsiate],"rates of TRVP-1 activation, capsiate compared with dihydrocapsiate",TRVP-1,similar
same,persistence of UCP3 mRNA expression in skeletal muscle,[5],2 h
same,ATP cost of twitch force generation,"mouse, in vivo",reduced
same,twitch force-generating capacity,"mouse, in vivo",increased
same,oxidative phosphorylation during rest,rest,not affected
same,contribution of oxidative phosphorylation to total energy turnover,when exercising,increased
same,glycolysis,when exercising,reduction
same,residual glycogen in the gastrocnemius muscle,[6]; after 30 min of swimming,higher
same,serum free fatty acid concentration,[6]; after 30 min of swimming,tended to be higher
same,serum lactic acid concentration,[6]; after 30 min of swimming,significantly lower
same,carbohydrate oxidation,[6]; [7],reduced
same,fat oxidation,[6]; [7],significantly higher
same,oxygen consumption (aerobic),[6]; [7],significantly higher
same,swimming time versus mice without capsiate,[6]; mice,significantly longer
